Measured values reported in the NIST ThermoML archive (doi:10.1021/acs.jced.7b00148).

Settings: Liquid; for vapor or sublimation pressure: Closed cell (Static) method; for Critical pressure: Direct measurement; for Critical temperature: Visual observation in an unstirred cell

C=CCCC [1-pentene]
Settings | Critical pressure [kPa] | Critical temperature [K] | vapor or sublimation pressure [kPa]
– | 3585 | 466.59 | –
297.86 K | – | – | 84
327.08 K | – | – | 216
336.14 K | – | – | 279
346.92 K | – | – | 372
356.19 K | – | – | 468
356.89 K | – | – | 474
366.77 K | – | – | 600
377.34 K | – | – | 757
387.42 K | – | – | 933
394.67 K | – | – | 1085
399.61 K | – | – | 1193
403.03 K | – | – | 1269
411.19 K | – | – | 1472
420.96 K | – | – | 1752
426.1 K | – | – | 1915
436.17 K | – | – | 2255
439.5 K | – | – | 2373
445.74 K | – | – | 2622
452.59 K | – | – | 2902
456.52 K | – | – | 3081
457.93 K | – | – | 3152
460.95 K | – | – | 3294
462.87 K | – | – | 3389
463.77 K | – | – | 3443
466.59 K | – | – | 3585

C=CC(C)C [3-methyl-1-butene]
Settings | Critical pressure [kPa] | Critical temperature [K] | vapor or sublimation pressure [kPa]
– | 3463 | 451.38 | –
302.9 K | – | – | 140
323.75 K | – | – | 264
336.44 K | – | – | 374
350.65 K | – | – | 533
358.2 K | – | – | 635
371.6 K | – | – | 855
382.88 K | – | – | 1073
390.84 K | – | – | 1255
399 K | – | – | 1458
405.25 K | – | – | 1632
413.2 K | – | – | 1874
420.56 K | – | – | 2113
431.03 K | – | – | 2509
439.9 K | – | – | 2885
445.14 K | – | – | 3138
447.76 K | – | – | 3260
450.48 K | – | – | 3407
451.38 K | – | – | 3463

C=C(C)CC [2-methyl-1-butene]
Settings | Critical pressure [kPa] | Critical temperature [K] | vapor or sublimation pressure [kPa]
– | 3652 | 467.9 | –
299.27 K | – | – | 85
323.65 K | – | – | 190
341.18 K | – | – | 312
353.77 K | – | – | 431
366.06 K | – | – | 579
368.18 K | – | – | 608
375.63 K | – | – | 717
386.21 K | – | – | 898
398.5 K | – | – | 1149
409.28 K | – | – | 1402
419.65 K | – | – | 1695
429.02 K | – | – | 1985
431.24 K | – | – | 2065
438.39 K | – | – | 2316
448.46 K | – | – | 2723
457.43 K | – | – | 3118
460.55 K | – | – | 3271
463.37 K | – | – | 3409
465.49 K | – | – | 3523
467.9 K | – | – | 3652

CC=C(C)C [2-methyl-2-butene]
Settings | Critical pressure [kPa] | Critical temperature [K] | vapor or sublimation pressure [kPa]
– | 3686 | 477.47 | –
307.63 K | – | – | 87
325.06 K | – | – | 157
340.98 K | – | – | 249
350.14 K | – | – | 321
364.85 K | – | – | 463
372.91 K | – | – | 560
380.97 K | – | – | 673
389.83 K | – | – | 811
397.89 K | – | – | 954
408.17 K | – | – | 1167
422.67 K | – | – | 1524
430.83 K | – | – | 1758
439.09 K | – | – | 2021
448.36 K | – | – | 2349
453.3 K | – | – | 2541
454.71 K | – | – | 2600
461.46 K | – | – | 2884
464.08 K | – | – | 3006
470.72 K | – | – | 3327
471.73 K | – | – | 3377
473.04 K | – | – | 3442
475.16 K | – | – | 3556
477.47 K | – | – | 3686
